Assay type in all cases: biochemical
Experiment [1] has as its target T1, HDAC6 enzyme (Homo sapiens, UniProt Q9UBN7).
T1 construct: transducing full length HDAC1 and HDAC6 genes into Sf-9 insect cells; GST; purchased SignalChem; host or cells: Sf-9 insect cells
T1 sequence (Q9UBN7 1-1215): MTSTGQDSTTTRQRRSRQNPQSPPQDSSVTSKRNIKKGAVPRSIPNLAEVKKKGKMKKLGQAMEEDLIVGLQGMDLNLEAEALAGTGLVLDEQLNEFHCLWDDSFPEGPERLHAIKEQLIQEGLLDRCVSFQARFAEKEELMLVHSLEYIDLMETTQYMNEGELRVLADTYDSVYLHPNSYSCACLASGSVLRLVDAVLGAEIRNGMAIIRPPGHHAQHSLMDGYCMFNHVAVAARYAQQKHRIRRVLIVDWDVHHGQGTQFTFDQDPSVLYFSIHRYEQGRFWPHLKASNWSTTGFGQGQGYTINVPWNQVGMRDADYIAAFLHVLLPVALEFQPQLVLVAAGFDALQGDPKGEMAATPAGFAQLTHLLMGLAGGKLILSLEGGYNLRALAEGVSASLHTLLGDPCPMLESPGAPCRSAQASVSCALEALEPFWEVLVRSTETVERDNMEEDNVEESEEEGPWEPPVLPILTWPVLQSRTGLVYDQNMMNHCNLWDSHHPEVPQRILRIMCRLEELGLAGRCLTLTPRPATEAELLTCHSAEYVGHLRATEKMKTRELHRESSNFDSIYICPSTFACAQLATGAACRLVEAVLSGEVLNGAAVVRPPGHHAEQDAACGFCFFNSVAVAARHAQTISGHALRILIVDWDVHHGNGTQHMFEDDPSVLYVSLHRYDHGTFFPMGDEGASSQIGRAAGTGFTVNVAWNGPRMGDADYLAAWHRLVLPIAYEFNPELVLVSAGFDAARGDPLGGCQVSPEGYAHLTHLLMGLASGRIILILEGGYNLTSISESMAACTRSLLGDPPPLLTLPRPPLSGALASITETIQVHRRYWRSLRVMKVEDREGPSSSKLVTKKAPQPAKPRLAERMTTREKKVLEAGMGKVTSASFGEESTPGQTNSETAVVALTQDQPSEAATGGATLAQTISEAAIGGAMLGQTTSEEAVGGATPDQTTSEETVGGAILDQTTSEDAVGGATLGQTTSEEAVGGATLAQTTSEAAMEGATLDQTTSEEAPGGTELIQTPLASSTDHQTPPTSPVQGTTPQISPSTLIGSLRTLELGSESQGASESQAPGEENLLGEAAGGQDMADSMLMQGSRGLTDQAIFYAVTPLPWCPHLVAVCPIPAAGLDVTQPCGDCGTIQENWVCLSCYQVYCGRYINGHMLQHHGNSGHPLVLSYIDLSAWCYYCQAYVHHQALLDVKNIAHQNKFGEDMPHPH
The experiment is described as follows: HDAC1/6 Enzyme Inhibitory Assay (HDAC-Glo I/II Assay kit), HDAC6. To be noted: 1 μM test compound; wells without enzyme = 100% inhibition; read-out: HDAC6 inhibitory rate (%) (1 μM). In outline: (§1)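 Full-length human HDAC1 or HDAC6, GST-purified from Sf-9 cells, was preincubated with compound for 60 min at room temperature in Tris-HCl pH 7.5 buffer with MgCl2, KCl, NaCl, glutathione and Tween-20. HDAC-Glo I/II substrate-developer was then added and reacted for 20 min before luminescence was read. Inhibition was set relative to no-enzyme wells as 100% inhibition.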

The target in experiment [2] is T2, HDAC1 enzyme (Homo sapiens, UniProt Q13547).
T2 construct: transducing full length HDAC1 and HDAC6 genes into Sf-9 insect cells; GST; purchased SignalChem; host or cells: Sf-9 insect cells
The experiment is described as follows: HDAC1/6 Enzyme Inhibitory Assay (HDAC-Glo I/II Assay kit), HDAC1. To be noted: 1 μM test compound, wells without enzyme = 100% inhibition; for inhibition at 1 µM: read-out: HDAC1 inhibitory rate (%) (1 μM). An outline of the steps:
as §1

Experiment [3] deals with T3, HDAC9 enzyme (Homo sapiens, UniProt Q9UKV0).
T3 construct: transducing full length HDAC9 gene into Sf-9 insect cells; made in house; host or cells: Sf-9 insect cells
The experiment is described as follows: HDAC9 Enzyme Inhibitory Assay (HDAC-Glo class IIa). Particulars: 1 μM test compound; wells without enzyme = 100% inhibition; read-out: HDAC9 inhibitory rate (%) (1 μM). In outline:
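Luminescent HDAC-Glo class IIa readout after a 20 min room-temperature reaction; relative inhibition referenced to enzyme-free wells as 100%. Test compound first preincubated 60 min with Sf-9-expressed, Ni-NTA-purified full-length HDAC9 in pH 7.5 Tris buffer containing 135 mM NaCl, 0.6 mM glutathione and 0.01% Tween-20.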

This is an account of results in patent US10308643B2, “Heterocyclic compound” (Takeda Pharmaceutical Company Limited, priority 2015, dated 2019).

Structures are written as SMILES.

T3 sequence (Q9UKV0 whole entry, species assumed): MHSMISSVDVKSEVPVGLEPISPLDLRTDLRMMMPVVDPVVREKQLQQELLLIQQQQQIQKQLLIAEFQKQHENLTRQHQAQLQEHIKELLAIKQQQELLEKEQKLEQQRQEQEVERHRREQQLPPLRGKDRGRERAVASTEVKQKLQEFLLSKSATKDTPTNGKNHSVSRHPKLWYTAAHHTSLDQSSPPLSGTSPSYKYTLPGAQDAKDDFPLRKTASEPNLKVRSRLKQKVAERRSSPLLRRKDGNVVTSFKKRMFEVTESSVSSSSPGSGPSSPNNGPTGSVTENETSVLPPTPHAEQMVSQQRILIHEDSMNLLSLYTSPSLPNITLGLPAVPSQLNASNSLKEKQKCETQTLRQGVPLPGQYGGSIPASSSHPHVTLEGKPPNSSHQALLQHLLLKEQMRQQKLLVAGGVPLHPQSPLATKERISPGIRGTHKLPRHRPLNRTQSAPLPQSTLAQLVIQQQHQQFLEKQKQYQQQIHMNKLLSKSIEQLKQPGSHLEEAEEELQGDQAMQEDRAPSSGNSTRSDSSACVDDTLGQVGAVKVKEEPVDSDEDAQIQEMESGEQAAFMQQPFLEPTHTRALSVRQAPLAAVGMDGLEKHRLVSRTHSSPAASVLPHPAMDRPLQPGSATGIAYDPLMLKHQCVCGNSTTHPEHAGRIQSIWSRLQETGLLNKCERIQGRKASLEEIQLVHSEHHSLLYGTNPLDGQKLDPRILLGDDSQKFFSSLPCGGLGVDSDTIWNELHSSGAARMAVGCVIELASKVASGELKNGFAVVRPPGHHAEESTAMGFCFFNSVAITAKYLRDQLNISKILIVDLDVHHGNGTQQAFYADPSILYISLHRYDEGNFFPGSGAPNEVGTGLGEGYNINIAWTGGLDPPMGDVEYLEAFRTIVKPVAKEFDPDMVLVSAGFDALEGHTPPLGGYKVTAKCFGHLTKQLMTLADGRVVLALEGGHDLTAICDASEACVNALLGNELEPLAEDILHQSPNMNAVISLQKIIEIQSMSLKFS
T2 sequence (Q13547 whole entry): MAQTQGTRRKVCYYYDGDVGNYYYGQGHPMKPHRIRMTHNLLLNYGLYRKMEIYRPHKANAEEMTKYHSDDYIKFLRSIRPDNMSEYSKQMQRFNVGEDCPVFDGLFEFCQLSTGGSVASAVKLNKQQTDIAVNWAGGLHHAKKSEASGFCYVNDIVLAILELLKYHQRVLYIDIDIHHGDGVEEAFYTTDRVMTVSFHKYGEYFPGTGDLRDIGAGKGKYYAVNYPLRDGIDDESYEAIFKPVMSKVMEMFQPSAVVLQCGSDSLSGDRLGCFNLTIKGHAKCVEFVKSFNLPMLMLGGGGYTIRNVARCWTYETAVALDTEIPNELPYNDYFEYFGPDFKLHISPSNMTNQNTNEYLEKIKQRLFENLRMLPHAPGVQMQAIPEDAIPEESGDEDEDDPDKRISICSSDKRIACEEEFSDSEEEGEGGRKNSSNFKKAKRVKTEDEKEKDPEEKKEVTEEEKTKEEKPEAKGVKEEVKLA

`CC1(C(=O)N[C@@H]2CCCC[C@H]2N2Cc3ccc(-c4noc(C(F)(F)F)n4)cc3C2=O)CC1(F)F` (stereo partly drawn) [Example 111, 2,2-difluoro-1-methyl-N-((1R,2R)-2-(1-oxo-6-(5-(trifluoromethyl)-1,2,4-oxadiazol-3-yl)-1,3-dihydro-2H-isoindol-2-yl)cyclohexyl) cyclopropanecarboxamide]: the inhibition at 1 µM was determined as 99% in experiment [1], 14% in experiment [2] and 69% in experiment [3].

On to `Cn1cc(C(=O)N[C@@H]2CCCC[C@H]2N2Cc3ccc(-c4noc(C(F)(F)F)n4)cc3C2=O)cn1` [Example 112, 1-methyl-N-((1R,2R)-2-(1-oxo-6-(5-(trifluoromethyl)-1,2,4-oxadiazol-3-yl)-1,3-dihydro-2H-isoindol-2-yl)cyclohexyl)-1H-pyrazole-4-carboxamide], for which the inhibition at 1 µM worked out at 96% in experiment [1], 13% in experiment [2] and 57% in experiment [3].

Regarding `O=C1c2cc(-c3noc(C(F)(F)F)n3)ccc2CN1[C@@H]1CCCC[C@H]1NC(=O)C1(CO)CCOCC1` [Example 113, 4-(hydroxymethyl)-N-((1R,2R)-2-(1-oxo-6-(5-(trifluoromethyl)-1,2,4-oxadiazol-3-yl)-1,3-dihydro-2H-isoindol-2-yl)cyclohexyl)tetrahydro-2H-pyran-4-carboxamide], the inhibition at 1 µM in experiment [1] is 97%; in experiment [2], 0%; in experiment [3], 32%.

On to `CC(C)(C)N1CC(C(=O)N[C@@H]2CCCC[C@H]2N2Cc3ccc(-c4noc(C(F)(F)F)n4)cc3C2=O)C1` [Example 114, 1-tert-butyl-N-((1R,2R)-2-(1-oxo-6-(5-(trifluoromethyl)-1,2,4-oxadiazol-3-yl)-1,3-dihydro-2H-isoindol-2-yl)cyclohexyl)azetidine-3-carboxamide], for which the figures for the inhibition at 1 µM in experiment [1], in experiment [2] and in experiment [3] were 39%, 1% and 11%, respectively.

`O=C(N[C@@H]1CCCC[C@H]1N1Cc2ccc(-c3noc(C(F)(F)F)n3)cc2C1=O)c1ccncn1` [Example 115, N-((1R,2R)-2-(1-oxo-6-(5-(trifluoromethyl)-1,2,4-oxadiazol-3-yl)-1,3-dihydro-2H-isoindol-2-yl)cyclohexyl)pyrimidine-4-carboxamide]: the inhibition at 1 µM worked out at 99% in experiment [1], 16% in experiment [2] and 64% in experiment [3].

As to `O=C(N[C@@H]1CCCC[C@H]1N1Cc2ccc(-c3noc(C(F)(F)F)n3)cc2C1=O)C1CCOC1` (stereo partly drawn) [Example 116, N-((1R,2R)-2-(1-oxo-6-(5-(trifluoromethyl)-1,2,4-oxadiazol-3-yl)-1,3-dihydro-2H-isoindol-2-yl)cyclohexyl)tetrahydrofuran-3-carboxamide], the inhibition at 1 µM in experiment [1] is 98%; in experiment [2] it was 4%; in experiment [3] it was 45%.

Turning to `O=C(Cc1cc(=O)[nH][nH]1)N[C@@H]1CCCC[C@H]1N1Cc2ccc(-c3noc(C(F)(F)F)n3)cc2C1=O` [Example 117, 2-(5-oxo-2,5-dihydro-1H-pyrazol-3-yl)-N-((1R,2R)-2-(1-oxo-6-(5-(trifluoromethyl)-1,2,4-oxadiazol-3-yl)-1,3-dihydro-2H-isoindol-2-yl)cyclohexyl)acetamide], the inhibition at 1 µM in experiment [1] was found to be 97%; in experiment [2], 4%; in experiment [3], 27%.

For the molecule `O=C1CCC(C(=O)N[C@@H]2CCCC[C@H]2N2Cc3ccc(-c4noc(C(F)(F)F)n4)cc3C2=O)=NN1` [Example 118, 6-oxo-N-((1R,2R)-2-(1-oxo-6-(5-(trifluoromethyl)-1,2,4-oxadiazol-3-yl)-1,3-dihydro-2H-isoindol-2-yl)cyclohexyl)-1,4,5,6-tetrahydropyridazine-3-carboxamide], the values for the inhibition at 1 µM in experiment [1], in experiment [2] and in experiment [3] were 98%, 5% and 46%, respectively.

With `O=C(N[C@@H]1CCCC[C@H]1N1Cc2ccc(-c3noc(C(F)(F)F)n3)cc2C1=O)C1CCCCCO1` (stereo partly drawn) [Example 119, N-((1R,2R)-2-(1-oxo-6-(5-(trifluoromethyl)-1,2,4-oxadiazol-3-yl)-1,3-dihydro-2H-isoindol-2-yl)cyclohexyl)oxepane-2-carboxamide], the inhibition at 1 µM in experiment [1] came to 100%; in experiment [3] it was 38%. Also, in experiment [2] (1 µM), the “HDAC1 inhibitory rate (%) (1 μM)” value was 4%.

Turning to `CN1CC(C(=O)N[C@@H]2CCCC[C@H]2N2Cc3ccc(-c4noc(C(F)(F)F)n4)cc3C2=O)CC1=O` (stereo partly drawn) [Example 120, 1-methyl-5-oxo-N-((1R,2R)-2-(1-oxo-6-(5-(trifluoromethyl)-1,2,4-oxadiazol-3-yl)-1,3-dihydro-2H-isoindol-2-yl)cyclohexyl)pyrrolidine-3-carboxamide], the inhibition at 1 µM is 79% in experiment [1], -3% in experiment [2] and 37% in experiment [3].

On to `O=C(CN1CCCC1=O)N[C@@H]1CCCC[C@H]1N1Cc2ccc(-c3noc(C(F)(F)F)n3)cc2C1=O` [Example 121, 2-(2-oxopyrrolidin-1-yl)-N-((1R,2R)-2-(1-oxo-6-(5-(trifluoromethyl)-1,2,4-oxadiazol-3-yl)-1,3-dihydro-2H-isoindol-2-yl)cyclohexyl)acetamide], for which the figures for the inhibition at 1 µM in experiment [1], in experiment [2] and in experiment [3] were 89%, 3% and 40%, respectively.

In the case of `N#CC1(C(=O)N[C@@H]2CCCC[C@H]2N2Cc3ccc(-c4noc(C(F)(F)F)n4)cc3C2=O)CC1` [Example 122, 1-cyano-N-((1R,2R)-2-(1-oxo-6-(5-(trifluoromethyl)-1,2,4-oxadiazol-3-yl)-1,3-dihydro-2H-isoindol-2-yl)cyclohexyl) cyclopropanecarboxamide], the inhibition at 1 µM in experiment [1] stood at 97%; in experiment [2] it was 6%; in experiment [3], 67%.

Take `CN1CCC(C(=O)N[C@@H]2CCCC[C@H]2N2Cc3ccc(-c4noc(C(F)(F)F)n4)cc3C2=O)CC1` [Example 123, 1-methyl-N-((1R,2R)-2-(1-oxo-6-(5-(trifluoromethyl)-1,2,4-oxadiazol-3-yl)-1,3-dihydro-2H-isoindol-2-yl)cyclohexyl)piperidine-4-carboxamide]: the inhibition at 1 µM was 56% in experiment [1], -4% in experiment [2] and 5% in experiment [3].

For the molecule `CN1CCCCC1C(=O)N[C@@H]1CCCC[C@H]1N1Cc2ccc(-c3noc(C(F)(F)F)n3)cc2C1=O` (stereo partly drawn) [Example 124, 1-methyl-N-((1R,2R)-2-(1-oxo-6-(5-(trifluoromethyl)-1,2,4-oxadiazol-3-yl)-1,3-dihydro-2H-isoindol-2-yl)cyclohexyl)piperidine-2-carboxamide], the values for the inhibition at 1 µM in experiment [1], in experiment [2] and in experiment [3] were 96%, 3% and 32%, respectively.

With `O=C(N[C@@H]1CCCC[C@H]1N1Cc2ccc(-c3noc(C(F)(F)F)n3)cc2C1=O)C1CC(F)(F)C1` [Example 125, 3,3-difluoro-N-((1R,2R)-2-(1-oxo-6-(5-(trifluoromethyl)-1,2,4-oxadiazol-3-yl)-1,3-dihydro-2H-isoindol-2-yl)cyclohexyl) cyclobutanecarboxamide], the inhibition at 1 µM amounted to 99% in experiment [1], 11% in experiment [2] and 55% in experiment [3].
